Measured values from PubChem BioAssay AID1919009 (Molecular Pharmacology Branch, DTP, NCI, 2023).

Tested on: K24384-001-R-PDC complex spheroid growth
Assay: Anticancer human tumor K24384-001-R-PDC patient-derived pancreatic adenocarcinoma cell line growth inhibition [AhR]
Conditions: for IC50: curve of first compound; for viability, T/C: stronger effect = lower value; active = viability on the fitted dose curve at most 10% of control; inactive = the rest
Source text: Multicellular complex tumor spheroid response to aryl hydrocarbon receptor antagonists in combination with a variety of drugs and investigational agents in selected tumor cell lines
The current study was undertaken to assess response to aryl hydrocarbon receptor antagonists in combination with standard-of-care drugs and investigational agents in solid tumor complex spheroid models. Complex spheroids include a stromal component modeled by human endothelial cells (HUVEC) and fibroblasts modeled by human mesenchymal stem cells (MSCs). The concentration ranges selected for each drug and investigational agent were based upon clinically achievable concentrations if the clinical Cmax of the agent was known.
Compounds. The drugs and investigational agents: BAY 2416964 (NSC825713), GNF351 (NSC835774), CH-223191 (NSC835775), CPI-455 (NSC825282), aza-TdCyd (NSC777586), decitabine (NSC127716), belinostat (NSC758774), entinostat (NSC756642), pevonedistat (NSC761192), tazemetostat (NSC777109), talazoparib (NSC765396), olaparib (NSC753686), selinexor (NSC780203), nedisertib (M3814, NSC802822), bortezomib (NSC756655), venetoclax (NSC766270), doxorubicin (NSC123127), elimusertib (BAY189344, NSC800525), ceralasertib (AZD6738, NSC777638), TAK-243 (NSC785004), alisertib (NSC759677), etoposide (NSC141540), topotecan (NSC609699), eribulin (NSC707389), gemcitabine (NSC613327), carboplatin (NSC241240), cisplatin (NSC119875), and SN-38 (NSC673596) were obtained from the National Cancer Institute (NCI) Developmental Therapeutics Program Chemical Repository (32). The FDA-approved anticancer drug set is available from the Developmental Therapeutics Program at https://dtp.cancer.gov/organization/dscb/obtaining/available plates.htm. […] The stock solutions were prepared in dimethyl sulfoxide (DMSO, Sigma-Aldrich, St. Louis, MO, cat. D2650), except for the platinum compounds which were prepared in saline (Quality Biological, Gaithersburg, MD, cat. 114-055-101), at 800-fold the tested concentration and stored at -70 degrees C prior to their use. All drugs and investigational agents were tested over a range starting from a high concentration at or near the clinical Cmax and decreasing in half-log increments. If the clinical Cmax for an agent had not been determined, the highest concentration tested was 10 microM (Table 1).
Cell Culture. All cells were maintained in an incubator at 37 degrees C and 5% CO2 with 95% humidity. The PDC lines were cultured according to standard operating procedures established by the NCI PDMR (https://pdmr.cancer.gov). Briefly, all PDCs were thawed and cultured in Matrigel-coated flasks prepared with a working solution of 1X Ham's F-12 nutrient mix, without supplementation (Invitrogen, Waltham, MA, cat. 11765054), 100 U/mL penicillin-streptomycin (Invitrogen, cat. 15140122), and 2.5% Matrigel (Corning Inc., Corning, NY, cat. 354248) for the first three passages. All PDCs were cultured in complete DMEM/F-12 media containing advanced DMEM/F-12 (Invitrogen, cat. 12634028), 4.9% defined fetal bovine serum, heat inactivated (HyClone Laboratories Inc., Logan, UT, cat. SH30070.03HI), 389 ng/mL hydrocortisone (Sigma-Aldrich, cat. H4001), 9.7 ng/mL human EGF recombinant protein (Invitrogen, cat. PHG0313), 23.4 microg/mL adenine (Sigma-Aldrich, cat. A2786), 97.3 U/mL penicillin-streptomycin (Invitrogen, cat. 15140122), 1.9 mM L-glutamine (Invitrogen, cat. 25030081), and 9.7 microM Y-27632 dihydrochloride (Tocris Bioscience, Bristol, United Kingdom, cat. 1254). The PDCs were cultured in complete DMEM/F12 media without 10 microM Y-27632 dihydrochloride for at least two passages prior to the screen. The established cell lines NCI-H1341 and […] were cultured in DMEM/F-12, HEPES (Invitrogen, cat. 11330032), 5% defined fetal bovine serum (HyClone Laboratories Inc., cat. SH30070.03), ITS premix universal culture supplement [insulin (5 microg/mL), transferrin (5 microg/mL), and selenious acid (5 ng/mL)] […]

[1] = second compound 0.1 µM, first compound 0.0316 µM
[2] = second compound 0.1 µM, first compound 0.1 µM
[3] = second compound 0.1 µM, first compound 0.316 µM
[4] = second compound 0.1 µM, first compound 1 µM
[5] = second compound 0.1 µM, first compound 3.16 µM
[6] = second compound 0.1 µM, first compound 10 µM
[7] = second compound 0.316 µM, first compound 0.0316 µM
[8] = second compound 0.316 µM, first compound 0.1 µM
[9] = second compound 0.316 µM, first compound 0.316 µM
[10] = second compound 0.316 µM, first compound 1 µM
[11] = second compound 0.316 µM, first compound 3.16 µM
[12] = second compound 0.316 µM, first compound 10 µM
[13] = second compound 1 µM, first compound 0.0316 µM
[14] = second compound 1 µM, first compound 0.1 µM
[15] = second compound 1 µM, first compound 0.316 µM
[16] = second compound 1 µM, first compound 1 µM
[17] = second compound 1 µM, first compound 3.16 µM
[18] = second compound 1 µM, first compound 10 µM
[19] = second compound 3.16 µM, first compound 0.0316 µM
[20] = second compound 3.16 µM, first compound 0.1 µM
[21] = second compound 3.16 µM, first compound 0.316 µM
[22] = second compound 3.16 µM, first compound 1 µM
[23] = second compound 3.16 µM, first compound 3.16 µM
[24] = second compound 3.16 µM, first compound 10 µM
[25] = second compound 10 µM, first compound 0.0316 µM
[26] = second compound 10 µM, first compound 0.1 µM
[27] = second compound 10 µM, first compound 0.316 µM
[28] = second compound 10 µM, first compound 1 µM
[29] = second compound 10 µM, first compound 3.16 µM
[30] = second compound 10 µM, first compound 10 µM
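For viability, T/C in this document: percent of DMSO vehicle-treated spheroid viability set as 100%.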

CCc1c2c(nc3ccc(O)cc13)-c1cc3c(c(=O)n1C2)COC(=O)[C@]3(O)CC + CC(CO)NC(=O)c1cc(-c2ccc(Cl)cc2)nn(-c2cnn(C)c2)c1=O
0.00938 µM: IC50 (second compound 0.1 µM)
0.00865 µM: IC50 (second compound 1 µM)
0.00685 µM: IC50 (second compound 0.316 µM)
0.0115 µM: IC50 (second compound 3.16 µM)
0.0198 µM: IC50 (second compound 10 µM)
inactive: viability, T/C (second compound 0.1 µM, first compound 0.000949 µM) 53.8% | viability, T/C (second compound 0.1 µM, first compound 0.003 µM) 58.1% | viability, T/C (second compound 0.1 µM, first compound 0.00949 µM) 52.2% | viability, T/C (second compound 0.1 µM, first compound 0.03 µM) 36.1% | viability, T/C (second compound 0.1 µM, first compound 0.0949 µM) 40.8% | viability, T/C (second compound 0.1 µM, first compound 0.3 µM) 26.7% | viability, T/C (second compound 0.316 µM, first compound 0.000949 µM) 70.6% | viability, T/C (second compound 0.316 µM, first compound 0.003 µM) 53.1% | viability, T/C (second compound 0.316 µM, first compound 0.00949 µM) 48.9% | viability, T/C (second compound 0.316 µM, first compound 0.03 µM) 38.2% | viability, T/C (second compound 0.316 µM, first compound 0.0949 µM) 34.6% | viability, T/C (second compound 0.316 µM, first compound 0.3 µM) 25% | viability, T/C (second compound 1 µM, first compound 0.000949 µM) 63.5% | viability, T/C (second compound 1 µM, first compound 0.003 µM) 56.4% | viability, T/C (second compound 1 µM, first compound 0.00949 µM) 51.5% | viability, T/C (second compound 1 µM, first compound 0.03 µM) 34.8% | viability, T/C (second compound 1 µM, first compound 0.0949 µM) 27.9% | viability, T/C (second compound 1 µM, first compound 0.3 µM) 21% | viability, T/C (second compound 3.16 µM, first compound 0.000949 µM) 55.8% | viability, T/C (second compound 3.16 µM, first compound 0.003 µM) 52.6% | viability, T/C (second compound 3.16 µM, first compound 0.00949 µM) 54.6% | viability, T/C (second compound 3.16 µM, first compound 0.03 µM) 34.6% | viability, T/C (second compound 3.16 µM, first compound 0.0949 µM) 26.6% | viability, T/C (second compound 3.16 µM, first compound 0.3 µM) 19.3% | viability, T/C (second compound 10 µM, first compound 0.000949 µM) 63.9% | viability, T/C (second compound 10 µM, first compound 0.003 µM) 54.4% | viability, T/C (second compound 10 µM, first compound 0.00949 µM) 57.3% | viability, T/C (second compound 10 µM, first compound 0.03 µM) 47% | viability, T/C (second compound 10 µM, first compound 0.0949 µM) 30.3% | viability, T/C (second compound 10 µM, first compound 0.3 µM) 19.4%

Nc1ccn(C2OC(CO)C(O)C2(F)F)c(=O)n1 (stereo not given) + CC(CO)NC(=O)c1cc(-c2ccc(Cl)cc2)nn(-c2cnn(C)c2)c1=O
inactive: viability, T/C [1] 81.9% | viability, T/C [2] 90.8% | viability, T/C [3] 65.8% | viability, T/C [4] 35.6% | viability, T/C [5] 31.8% | viability, T/C [6] 28.1% | viability, T/C [7] 92.2% | viability, T/C [8] 92.5% | viability, T/C [9] 70.7% | viability, T/C [10] 38.6% | viability, T/C [11] 30.7% | viability, T/C [12] 27% | viability, T/C [13] 90.9% | viability, T/C [14] 77.4% | viability, T/C [15] 69.8% | viability, T/C [16] 45.3% | viability, T/C [17] 26.7% | viability, T/C [18] 26.4% | viability, T/C [19] 77.5% | viability, T/C [20] 79.8% | viability, T/C [21] 72.4% | viability, T/C [22] 45.6% | viability, T/C [23] 30.1% | viability, T/C [24] 24.8% | viability, T/C [25] 82.9% | viability, T/C [26] 80.5% | viability, T/C [27] 81.6% | viability, T/C [28] 52.3% | viability, T/C [29] 36% | viability, T/C [30] 33.9%
0.666 µM: IC50 (second compound 0.316 µM)
0.841 µM: IC50 (second compound 3.16 µM)
0.767 µM: IC50 (second compound 1 µM)
1.17 µM: IC50 (second compound 10 µM)
0.57 µM: IC50 (second compound 0.1 µM)

O=C(c1cc(Cc2n[nH]c(=O)c3ccccc23)ccc1F)N1CCN(C(=O)C2CC2)CC1 + CC(CO)NC(=O)c1cc(-c2ccc(Cl)cc2)nn(-c2cnn(C)c2)c1=O
inactive: viability, T/C [1] 92.9% | viability, T/C [2] 95.3% | viability, T/C [3] 89.2% | viability, T/C [4] 76.7% | viability, T/C [5] 66.8% | viability, T/C [6] 62.2% | viability, T/C [7] 108% | viability, T/C [8] 99.6% | viability, T/C [9] 103% | viability, T/C [10] 82.3% | viability, T/C [11] 73.3% | viability, T/C [12] 70.4% | viability, T/C [13] 99.8% | viability, T/C [14] 104% | viability, T/C [15] 99.2% | viability, T/C [16] 72.3% | viability, T/C [17] 76% | viability, T/C [18] 67.9% | viability, T/C [19] 90.6% | viability, T/C [20] 96.7% | viability, T/C [21] 83.5% | viability, T/C [22] 78.3% | viability, T/C [23] 63.5% | viability, T/C [24] 59.2% | viability, T/C [25] 74.5% | viability, T/C [26] 72.7% | viability, T/C [27] 74% | viability, T/C [28] 71.9% | viability, T/C [29] 65.8% | viability, T/C [30] 69.7%
> 10 µM: IC50 (second compound 0.1 µM) | IC50 (second compound 0.316 µM) | IC50 (second compound 1 µM) | IC50 (second compound 3.16 µM) | IC50 (second compound 10 µM)
